Where no end group is shown, it is not given here. [ ]: non-standard residue; d: D form. dAllylGly = C=CC[C@@H](N)C(=O)O; AllylGly = C=CC[C@H](N)C(=O)O
What was measured:
Type in all cases: cell-based
HeLa cells = experiment: Assay of cytoskeletal (actin) rearrangement, fluorescence microscopy; settings: 60 minutes, FIG. 11
Protocol: FIG. 10 is a fluorescence microscopy analysis showing the effects of FCIGRL (SEQ ID NO:1) and F-(Allyl)GIGRL (SEQ ID NO:2) on actin rearrangement in HeLa cells after 15 minutes and 60 minutes.
Gliadin treated with the peptidases pepsin and trypsin (termed PT-gliadin or PTG) induces a cytoskeletal arrangement in CaCo2 cells grown in monolayers. The rearrangement can be visualized using a Nikon-TE2000 epifluorescence microscope and a 40× objective and Alexa Fluor 555 conjugated phalloidin (Invitrogen, Carlsbad, Calif.), which binds specifically to F-actin. Exposure times were identical for control and agonist treated samples. The figures were generated using Adobe Photoshop CS2 v 9.0.2. The concentration of agonist was as indicated. Tight junction agonists can be identified by their ability to induce the cytoskeletal rearrangement as shown by the effects of peptide FCIGRL, a known tight junction agonist. FIGS. 3-6 and 8-11 show the cytoskeletal rearrangements induced by exemplary tight junction agonists of the invention, including with respect to the distribution of F-actin and the tight junction protein ZO-1.

CaCo2 monolayers [1] = experiment: Trans Epithelial Electric Resistance (TEER) across CaCo2 monolayers; parameters: key to Reduced TEER: + indicates an enhancement of the permeability of the tight junctions were observed; − indicates no enhancement of permeability was observed; settings: for Reduced TEER: CaCo2 monolayers
CaCo2 monolayers [2] = experiment: Lucifer Yellow (LY) permeability assay through CaCo2 monolayers; parameters: key to Enhanced LY permeability: + indicates an enhancement of the permeability of the tight junctions were observed; − indicates no enhancement of permeability was observed; settings: for Enhanced LY permeability: CaCo2 monolayers, Lucifer Yellow flux

Substance	actin rearrangement in HeLa cells (HeLa cells)	Reduced TEER (CaCo2 monolayers [1])	Enhanced LY permeability (CaCo2 monolayers [2])	decrease in TEER across CaCo2 monolayers (CaCo2 monolayers [1]; compared to vehicle alone) [fold]	enhancement of Lucifer Yellow permeability through CaCo2 monolayers (CaCo2 monolayers [2]; compared to vehicle alone) [fold]
Phe−AllylGly−Ile−Gly−Arg−Leu−OH [SEQ ID NO: 2]	actin cytoskeletal rearrangement to the borderline of cells				
30 (F[AllylGly]AGRL-NH2; N-terminus assumed; SMILES C=CC[C@H](NC(=O)[C@@H](N)Cc1ccccc1)C(=O)N[C@@H](C)C(=O)NCC(=O)N[C@@H](CCCNC(=N)N)C(=O)N[C@@H](CC(C)C)C(N)=O) [compound 30]		+	+		
54 (F[AllylGly]IVRL-NH2; N-terminus assumed; SMILES C=CC[C@H](NC(=O)[C@@H](N)Cc1ccccc1)C(=O)N[C@H](C(=O)N[C@H](C(=O)N[C@@H](CCCNC(=N)N)C(=O)N[C@@H](CC(C)C)C(N)=O)C(C)C)[C@@H](C)CC) [compound 54]		+	−		
89 (FXIGRP-NH2; not fully specified (residue 2); printed as Phe−Allylaly−Ile−Gly−Arg−Pro−NH2) [compound 89]		−	−		
83 (F[AllylGly]IGRS-NH2; N-terminus assumed; SMILES C=CC[C@H](NC(=O)[C@@H](N)Cc1ccccc1)C(=O)N[C@H](C(=O)NCC(=O)N[C@@H](CCCNC(=N)N)C(=O)N[C@@H](CO)C(N)=O)[C@@H](C)CC) [compound 83]		−	−		
34 (F[AllylGly]QGRL-NH2; N-terminus assumed; SMILES C=CC[C@H](NC(=O)[C@@H](N)Cc1ccccc1)C(=O)N[C@@H](CCC(N)=O)C(=O)NCC(=O)N[C@@H](CCCNC(=N)N)C(=O)N[C@@H](CC(C)C)C(N)=O) [compound 34]		+	+		
47 (F[AllylGly]IERL-NH2; N-terminus assumed; SMILES C=CC[C@H](NC(=O)[C@@H](N)Cc1ccccc1)C(=O)N[C@H](C(=O)N[C@@H](CCC(=O)O)C(=O)N[C@@H](CCCNC(=N)N)C(=O)N[C@@H](CC(C)C)C(N)=O)[C@@H](C)CC) [compound 47]		+	+		
27 (F[AllylGly]FGRL-NH2; N-terminus assumed; SMILES C=CC[C@H](NC(=O)[C@@H](N)Cc1ccccc1)C(=O)N[C@@H](Cc1ccccc1)C(=O)NCC(=O)N[C@@H](CCCNC(=N)N)C(=O)N[C@@H](CC(C)C)C(N)=O) [compound 27]		+	+		
4 (F[dAllylGly]IGR-NH2; N-terminus assumed; SMILES C=CC[C@@H](NC(=O)[C@@H](N)Cc1ccccc1)C(=O)N[C@H](C(=O)NCC(=O)N[C@@H](CCCNC(=N)N)C(N)=O)[C@@H](C)CC) [compound 4]		−	−		
21 (I[AllylGly]IGRL-NH2; N-terminus assumed; SMILES C=CC[C@H](NC(=O)[C@@H](N)[C@@H](C)CC)C(=O)N[C@H](C(=O)NCC(=O)N[C@@H](CCCNC(=N)N)C(=O)N[C@@H](CC(C)C)C(N)=O)[C@@H](C)CC) [compound 21]		−	−		
FCIGRL [SEQ ID NO: 1, Phe−Cys−Ile−Gly−Arg−Leu, reference compound]				16	51

From patent publication US8557763B2, “Synthetic peptides that enhance tight junction permeability” (Alba Therapeutics Corporation, priority 2007, dated 2013)
